These results are taken from patent US20240174641A1, “HETEROCYCLIC COMPOUNDS CAPABLE OF […]” (Boehringer Ingelheim International GmbH, priority 2022, published 2024).

One test deals with dog STING (dSTING). The experiment in a line: Dog differential scanning fluorimetry (DSF) assay, thermal shift of dog STING protein. The format is binding. Conditions: DSF (dDSF); 100 μM compound, 3 μM dog STING protein; Tm with ligand minus Tm of protein alone. The method in brief:
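Dog STING residues 149–375, His-tag removed by TEV, tested at 3 μM with 100 μM compound, 5× SYPRO Orange and 2% DMSO in 20 mM Tris, 150 mM NaCl, pH 7.5. Heated 15–95 °C in 0.5 °C steps. Tm from Boltzmann fit, duplicates averaged; ΔTm relative to protein alone.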

The target in a further test is STING (Canis lupus familiaris, UniProt A0A8I3MH52). The experiment in a line: Dog whole blood (dWB) assay, IFNb secretion by ELISA. The format is cell-based. Conditions: canine Interferon-beta (IFNb) ELISA, 4 h incubation at 37° C. The method in brief: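 Citrated dog whole blood (stored overnight at 4 °C) was preincubated with compound for 60 min at room temperature, top concentration 10 μM with about 1:4 steps and 0.1% DMSO. It was then incubated 4 h at 37 °C, with cGAMP added only to the high-control wells. Plasma IFNb was measured by canine ELISA (A450), normalised to the cGAMP-stimulated and unstimulated controls, and EC50 was fitted with a 4-parameter logistic model.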
Chain of STING (A0A8I3MH52 1-374): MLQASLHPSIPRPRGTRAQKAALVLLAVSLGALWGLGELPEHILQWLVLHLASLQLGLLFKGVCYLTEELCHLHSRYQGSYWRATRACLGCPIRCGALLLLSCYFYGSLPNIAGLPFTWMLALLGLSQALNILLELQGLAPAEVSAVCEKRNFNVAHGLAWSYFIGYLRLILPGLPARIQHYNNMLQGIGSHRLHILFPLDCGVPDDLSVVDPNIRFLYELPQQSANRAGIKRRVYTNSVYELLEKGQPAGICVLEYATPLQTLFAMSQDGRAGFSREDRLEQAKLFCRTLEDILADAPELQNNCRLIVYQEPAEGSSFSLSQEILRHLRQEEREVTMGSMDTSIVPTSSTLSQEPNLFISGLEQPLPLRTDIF
In general terms: In an ELISA, binding on a coated surface is turned into a signal by an enzyme label.

What is called EC50 is the midpoint of the concentration-response curve. Low values mean an effect from little substance, high ones a need for much substance. With `CC(=O)N1CCN(c2ccc(-n3nc(-c4c(F)cc(F)c5nn(C)cc45)c4cc(F)cc(C)c43)cn2)CC1` [Example 68], in the test on dog STING (dSTING), the “Delta TM” value worked out at 28.5 °C. The compound also yielded an EC50 at STING of 106 nM.

With `Cc1cccc2c(-c3c(F)ccc4nn(C)c(F)c34)nn(-c3ccc(N4C[C@@H]5[C@H](C4)[C@H]5C(=O)O)nc3)c12` [Example 74, (1R,5S,6R)-3-(5-{3″,5″-difluoro-2″,7-dimethyl-1H,2″H-[3,4″-biindazol]-1-yl}pyridin-2-yl)-3-azabicyclo[3.1.0]hexane-6-carboxylic acid], the “Delta TM” value in the test on dog STING (dSTING) stood at 36.4 °C. Further, the EC50 on STING was found to be 160 nM.

Turning to `Cc1cc(F)cc2c(-c3c(F)cc(F)c4nn(C)cc34)nn(-c3ccc(N4CCC(C(=O)O)CC4)nc3)c12` [Example 67, 1-(5-{5,5″,7″-trifluoro-2″,7-dimethyl-1H,2″H-[3,4″-biindazol]-1-yl}pyridin-2-yl)piperidine-4-carboxylic acid], the “Delta TM” value in the test with dog STING (dSTING) is 37.0 °C. At STING, this compound came in with an EC50 of 102 nM.

As to `Cc1cccc2c(-c3c(F)ccc4nn(C)cc34)nn(-c3ccc(N4CC[C@@H](CC(=O)O)C4)nc3)c12` [Example 24, 2-[(3S)-1-(5-{5″-fluoro-2″,7-dimethyl-1H,2″H-[3,4″-biindazol]-1-yl}pyridin-2-yl)pyrrolidin-3-yl]acetic acid], in the test on dog STING (dSTING), the “Delta TM” value is 35.5 °C. In addition, the EC50 at STING is 270 nM.

With `Cc1cccc2c(-c3c(F)ccc4nn(C)cc34)nn(-c3ccc(N4CC5CCC4CC5C(=O)O)nc3)c12` (single isomer, unassigned) [Example 28-3], the “Delta TM” value in the test with dog STING (dSTING) was determined as 37.1 °C. For the same compound, the concentration for a half-maximal effect (EC50) at STING is 222 nM.

On to `Cc1cccc2c(-c3cccc4nn(C)c(F)c34)nn(-c3ccc(N4CC5CCC4CC5C(=O)O)nc3)c12` (single isomer, unassigned) [Example 20-4, 2-(5-{3'-fluoro-2',7-dimethyl-1H,2'H-[3,4'-biindazol]-1-yl}pyridin-2-yl)-2-azabicyclo[2.2.2]octane-5-carboxylic acid], for which, in the test on dog STING (dSTING), the “Delta TM” value was found to be 36.9 °C. Moreover, at STING, the EC50 turned out to be 207 nM.

As to `CC(=O)N1CCN(c2ccc(-n3nc(-c4c(F)cc(F)c5nn(C)cc45)c4cccc(C)c43)cn2)CC1` [Example 49, 1-[4-(5-{5″,7″-difluoro-2″,7-dimethyl-1H,2″H-[3,4″-biindazol]-1-yl}pyridin-2-yl)piperazin-1-yl]ethan-1-one], the “Delta TM” value with dog STING (dSTING) stood at 30.5 °C. This compound came in with an EC50 at STING of 416 nM.

In the case of “2-[4-(5-{3″-fluoro-2″,7-dimethyl- 1H,2″H-[3,4″-biindazol]-1-yl}pyridin-2- yl)morpholin-2-yl]acetic acid [Example 18]”, the “Delta TM” value in the test with dog STING (dSTING) worked out at 28.8 °C. This compound also displayed an EC50 on STING of 1070 nM.

Consider `Cc1cccc2c(-c3cccc4nn(C)c(F)c34)nn(-c3ccc(N4C[C@H]5C[C@@H]4C[C@@H]5C(=O)O)nc3)c12` [Example 73-1, (1R,4S,5S)-2-(5-{3″-fluoro-2″,7-dimethyl-1H,2″H-[3,4″-biindazol]-1-yl}pyridin-2-yl)-2-azabicyclo[2.2.1]heptane-5-carboxylic acid], for which the “Delta TM” value in the test on dog STING (dSTING) was 34.5 °C. Also, the EC50 on STING amounted to 87.5 nM.

Take `CC(=O)N1CC2CCC1CN2c1ccc(-n2nc(-c3cccc4nn(C)c(F)c34)c3cccc(C)c32)cn1` (stereo not drawn) [Example 23, 1-[5-(5-{3″-fluoro-2″,7-dimethyl-1H,2″H-[3,4″-biindazol]-1-yl}pyridin-2-yl)-2,5-diazabicyclo[2.2.2]octan-2-yl]ethan-1-one]: the “Delta TM” value in the test with dog STING (dSTING) came out at 29.6 °C. Also, at STING, a half-maximal effect (EC50) was put at 219 nM.

Turning to `Cc1cccc2c(-c3cccc4nn(C)c(F)c34)nn(-c3ccc(N4CC5CCC4CC5C(=O)O)nc3)c12` (single isomer, unassigned) [Example 20-3, 2-(5-{3'-fluoro-2',7-dimethyl-1H,2'H-[3,4'-biindazol]-1-yl}pyridin-2-yl)-2-azabicyclo[2.2.2]octane-5-carboxylic acid], in the test on dog STING (dSTING), the “Delta TM” value was determined as 35.9 °C. For the same compound, the response on STING was half-maximal at 195 nM (EC50).

In the case of `Cc1cccc2c(-c3c(F)ccc4nn(C)cc34)nn(-c3ccc(N4CCC(C(=O)O)CC4)nc3)c12` [Example 6, 1-(5-{5″-Fluoro-2″,7-dimethyl-1H,2″H-[3,4″-biindazol]-1-yl}pyridin-2-yl)piperidine-4-carboxylic acid], the “Delta TM” value in the test on dog STING (dSTING) was 35.5 °C. Besides, the EC50 on STING came to 243 nM.

As for `CC(=O)N1CCN(c2ccc(-n3nc(-c4cccc5nn(C)c(F)c45)c4ccc(F)c(C)c43)cn2)CC1` [Example 61, 1-[4-(5-{3″,6-difluoro-2″,7-dimethyl-1H,2″H-[3,4″-biindazol]-1-yl}pyridin-2-yl)piperazin-1-yl]ethan-1-one], the “Delta TM” value with dog STING (dSTING) stood at 30.8 °C. On STING, this compound showed an EC50 of 245 nM.

Regarding `Cc1cc(F)cc2c(-c3cccc4nn(C)c(F)c34)nn(-c3ccc(N4CCC(C(=O)O)CC4)nc3)c12` [Example 58, 1-(5-{3″,5-difluoro-2″,7-dimethyl-1H,2″H-[3,4″-biindazol]-1-yl}pyridin-2-yl)piperidine-4-carboxylic acid], the “Delta TM” value with dog STING (dSTING) came to 33.0 °C. This compound also returned an EC50 on STING of 207 nM.

As to `Cc1cccc2c(-c3cccc4nn(C)c(F)c34)nn(-c3ccc(N4CC[C@@H](CC(=O)O)C4)nc3)c12` [Example 16, 2-[(3S)-1-(5-{3″-fluoro-2″,7-dimethyl-1H,2″H-[3,4″-biindazol]-1-yl}pyridin-2-yl)pyrrolidin-3-yl]acetic acid], the “Delta TM” value with dog STING (dSTING) came out at 34.0 °C. This compound also displayed an EC50 on STING of 267 nM.

With `Cc1cccc2c(-c3cc(F)cc4nn(C)cc34)nn(-c3ccc(N4C[C@@H]5[C@H](C4)[C@H]5C(=O)O)nc3)c12` [Example 34, (1R,5S,6R)-3-(5-{6″-fluoro-2″,7-dimethyl-1H,2″H-[3,4″-biindazol]-1-yl}pyridin-2-yl)-3-azabicyclo[3.1.0]hexane-6-carboxylic acid], the “Delta TM” value in the test on dog STING (dSTING) was 24.8 °C. Besides, at STING, the midpoint of the response, the EC50, lay at 3280 nM.

`Cc1c(F)ccc2c(-c3c(F)cc(F)c4nn(C)cc34)nn(-c3ccc(N4CCC(C(=O)O)CC4)nc3)c12` [Example 70, 1-(5-{5″,6,7″-trifluoro-2″,7-dimethyl-1H,2″H-[3,4″-biindazol]-1-yl}pyridin-2-yl)piperidine-4-carboxylic acid]: the “Delta TM” value in the test with dog STING (dSTING) came to 34.5 °C. The same compound yielded an EC50 on STING of 296 nM.

`Cc1cccc2c(-c3c(F)cc(F)c4nn(C)cc34)nn(-c3ccc(N4CC5CCC4CC5C(=O)O)nc3)c12` (single isomer, unassigned) [Example 48-3]: the “Delta TM” value with dog STING (dSTING) came to 35.4 °C. This compound gave an EC50 on STING of 184 nM.

`Cc1cccc2c(-c3c(F)cc(F)c4nn(C)cc34)nn(-c3ccc(N4CC[C@H](CC(=O)O)C4)nc3)c12` [Example 46, 2-[(3R)-1-(5-{5″,7″-difluoro-2″,7-dimethyl-1H,2″H-[3,4″-biindazol]-1-yl}pyridin-2-yl)pyrrolidin-3-yl]acetic acid]: the “Delta TM” value in the test with dog STING (dSTING) came out at 35.3 °C. The compound further returned an EC50 on STING of 261 nM.

As for `Cc1cccc2c(-c3c(F)ccc4nn(C)cc34)nn(-c3ccc(N4CC[C@H](CC(=O)O)C4)nc3)c12` [Example 25, 2-[(3R)-1-(5-{5″-fluoro-2″,7-dimethyl-1H,2″H-[3,4″-biindazol]-1-yl}pyridin-2-yl)pyrrolidin-3-yl]acetic acid], the “Delta TM” value in the test on dog STING (dSTING) was 37.0 °C. In addition, the EC50 on STING was determined as 283 nM.

Regarding `Cc1cccc2c(-c3ccc(F)c4nn(C)c(F)c34)nn(-c3ccc(N4CC[C@H](CC(=O)O)C4)nc3)c12` [Example 55, 2-[(3R)-1-(5-{3″,7″-difluoro-2″,7-dimethyl-1H,2″H-[3,4″-biindazol]-1-yl}pyridin-2-yl)pyrrolidin-3-yl]acetic acid], the “Delta TM” value with dog STING (dSTING) turned out to be 34.5 °C. At STING, this compound showed an EC50 of 197 nM.
